Test results as given in publication PMC9989278, “Characterization of substrates and inhibitors of the human heterodimeric transporter 4F2hc-LAT1 using purified protein and the scintillation proximity radioligand binding assay” (Frontiers in Physiology, 2023).
Read-outs that look alike come from different tables or passages of the source. Values belong to the compound of their own block, whether it stands above or below them.

How the values were obtained:
human 4F2hc-LAT1 [1] = target: T1, human 4F2hc-LAT1 (Homo sapiens, UniProt Q01650); assay: Scintillation proximity radioligand binding assay (SPA), [3H]L-leucine competition on purified protein; conditions: for Binding of [3H]L-Leucine (%), residual radioligand binding: Figure 1, mean of three experiments; for Binding of [3H]L-Leucine (%), residual radioligand binding / Binding of [3H]L-Leucine (%), residual radioligand binding (RRB) / binding / inhibition of [3H]L-leucine binding to 4F2hc-LAT1, in words: competitor 250 µM; for Binding of [3H]L-Leucine (%), residual radioligand binding / Binding of [3H]L-Leucine (%), residual radioligand binding (RRB): normalized to control without competitor
T1 construct: Strep-tag (N); made in house; host or cells: Pichia pastoris strain KM71H
T1 sequence (Q01650 whole entry): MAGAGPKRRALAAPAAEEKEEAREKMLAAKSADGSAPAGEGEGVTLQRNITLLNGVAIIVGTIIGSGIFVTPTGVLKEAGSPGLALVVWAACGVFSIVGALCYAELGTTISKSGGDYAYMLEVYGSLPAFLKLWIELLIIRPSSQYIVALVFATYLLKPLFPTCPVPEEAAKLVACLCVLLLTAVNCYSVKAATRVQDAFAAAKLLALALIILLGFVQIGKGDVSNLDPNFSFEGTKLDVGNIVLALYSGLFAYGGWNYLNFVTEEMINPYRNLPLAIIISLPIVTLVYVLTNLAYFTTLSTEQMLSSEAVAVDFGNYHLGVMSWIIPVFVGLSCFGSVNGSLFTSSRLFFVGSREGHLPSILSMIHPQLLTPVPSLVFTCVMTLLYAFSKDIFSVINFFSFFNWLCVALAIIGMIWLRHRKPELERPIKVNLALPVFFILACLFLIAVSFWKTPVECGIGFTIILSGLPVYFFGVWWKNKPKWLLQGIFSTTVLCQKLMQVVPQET
T1 sequence (P08195 102-630 partner): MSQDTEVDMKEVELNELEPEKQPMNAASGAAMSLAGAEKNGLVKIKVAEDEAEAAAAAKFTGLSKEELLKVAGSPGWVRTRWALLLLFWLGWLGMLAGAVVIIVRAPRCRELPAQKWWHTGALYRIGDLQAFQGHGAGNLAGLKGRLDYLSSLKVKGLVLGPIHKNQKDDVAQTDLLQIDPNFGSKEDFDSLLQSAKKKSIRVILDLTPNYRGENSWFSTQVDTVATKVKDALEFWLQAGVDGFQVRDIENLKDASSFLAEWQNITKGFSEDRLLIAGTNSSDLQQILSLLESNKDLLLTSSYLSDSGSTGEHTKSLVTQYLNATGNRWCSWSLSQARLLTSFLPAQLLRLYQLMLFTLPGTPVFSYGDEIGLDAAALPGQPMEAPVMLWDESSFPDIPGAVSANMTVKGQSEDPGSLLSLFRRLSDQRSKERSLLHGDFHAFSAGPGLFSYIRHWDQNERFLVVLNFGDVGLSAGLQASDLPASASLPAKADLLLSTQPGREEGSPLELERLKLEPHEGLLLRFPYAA
Method: Purified, GDN-solubilized human 4F2hc-LAT1 was attached via the His-tag to polyvinyltolune (PVT) copper His-tag SPA beads (Perkin Elmer) and the protein-bound [^3H]L-leucine quantified using a scintillation counter (a detailed description of SPA with 4F2hc-LAT1 is given in the methodological publication by ([Kantipudi et al., 2021])). Briefly, experiments were conducted in 96-well plates and per well a reaction volume of 50 µL containing 250 µg PVT-SPA-beads, 1.75 µg 4F2hc-LAT1 protein, 2.5 μM L-leucine spiked with 0.5 µCi [^3H]L-leucine (ARC/Anawa, 100 Ci/mmol, 1 mCi/ml) plus a condition-specific substance. All components were dissolved in SPA-Buffer (100 mM BTP pH 8, 150 mM NaCl, 10% (v/v) glycerol, 0.5% (w/v) GDN). For some condition-specific substances (i.e., the thyroid hormones), 20 min sonication in a water bath at 4°C was necessary to dissolve them at 10× concentration in SPA-Buffer. Per reaction, 5 µL of a 10× stock solution of the condition-specific substance was placed in a well and diluted with 45 µL of a master mix containing the remaining components. For determining the substrate specificities (Figure 1), the twenty proteogenic L-amino acids and D-leucine were used as competitors at a final concentration of 250 µM. For determining the K D of L-leucine (Figure 2A) and K i of L-histidine (Figure 2B), homologous (L-leucine) and heterologous (L-histidine) substrate competition was applied at concentrations ranging from 0.01 to 1600 µM. […] The binding specificities of structural analogues of L-leucine (Figure 3) and L-histidine (Figure 4) were tested at a final competitor concentration of 250 µM. […] To avoid minor unspecific binding of radioactive L-leucine to the beads, the master mix was created in a specific procedure: SPA-beads were first mixed with the unlabeled L-leucine and shaken for 2 h at 4°C before adding the remaining components (protein last). For background subtraction in the bar graph experiments, a no-protein control was included using protein-free master mix (i.e., containing buffer instead of protein solution). The plate was shortly mixed by shaking and incubated at 4°C for ∼18 h before the signals were counted using a microplate scintillation counter (Trilux Microbeta, Perkin Elmer). […] Three experiments with protein from at least two different purifications were performed, each at least in triplicates.
Data were analyzed with Prism 6 (GraphPad Software). […] Each experiment was done with sample number of at least three (triplicate). Data of three independent experiments were merged by adding the normalized data to a common data set, which was used for curve fitting. For data analysis of the bar graphs, the signal of the no-protein control was subtracted from the transporter signal to obtain the net binding signal.

human 4F2hc-LAT1 [2] = target: T1, human 4F2hc-LAT1; conditions: ref Kantipudi et al., 2020, cited from earlier work
recombinant human LAT1 = test system: recombinant human LAT1; parameters: method as in Napolitano et al., 2015; conditions: proteoliposomes, ref Napolitano et al., 2015, cited from earlier work
[3] = heterologous competition with [3H]L-leucine, Figure 2B, C, E, F, read-out: Ki
[4] = Figure 4, L-histidine analogues

Binding of [3H]L-Leucine (%), residual radioligand binding (human 4F2hc-LAT1 [1]): 46%
Compound: N[C@@H](CO)C(=O)O [Ser]

Binding of [3H]L-Leucine (%), residual radioligand binding (RRB) (human 4F2hc-LAT1 [1]; Figure 3, L-leucine analogues): 45%
Binding of [3H]L-Leucine (%), residual radioligand binding (RRB) (human 4F2hc-LAT1 [1]; Figure 3, L-leucine analogues, listed as L-2-aminobutyric acid): 37–45%
Compound: CC[C@H](N)C(=O)O [L-2-Aminobutyric Acid, L-2-aminobutyric acid]

Binding of [3H]L-Leucine (%), residual radioligand binding (human 4F2hc-LAT1 [1]): 45%
Compound: N[C@@H](CC(=O)O)C(=O)O [Asp]

Binding of [3H]L-Leucine (%), residual radioligand binding (human 4F2hc-LAT1 [1]): 45%
Compound: NCCCC[C@H](N)C(=O)O [Lys]

Binding of [3H]L-Leucine (%), residual radioligand binding (human 4F2hc-LAT1 [1]): 1%
Binding of [3H]L-Leucine (%), residual radioligand binding (RRB) (human 4F2hc-LAT1 [1]; Figure 3, L-leucine analogues): 1%
binding / inhibition of [3H]L-leucine binding to 4F2hc-LAT1, in words (human 4F2hc-LAT1 [1]): inhibited strongly
Kd (human 4F2hc-LAT1 [1]; homologous competition with [3H]L-leucine, Figure 2A): 26 µM
Compound: CC(C)C[C@H](N)C(=O)O [L-Leucine, L-leucine]
Km (human 4F2hc-LAT1 [2]; P. pastoris cell uptake assay): 25 µM

Binding of [3H]L-Leucine (%), residual radioligand binding (human 4F2hc-LAT1 [1]): 2%
Binding of [3H]L-Leucine (%), residual radioligand binding (RRB) (human 4F2hc-LAT1 [1]; [4]): 1%
binding / inhibition of [3H]L-leucine binding to 4F2hc-LAT1, in words (human 4F2hc-LAT1 [1]): inhibited strongly
Ki (human 4F2hc-LAT1 [1]; [3]): 28 µM
Compound: N[C@@H](Cc1c[nH]cn1)C(=O)O [L-Histidine, L-histidine]
IC50 (human 4F2hc-LAT1 [2]; [3H]L-leucine uptake inhibition, P. pastoris cells): 23 µM
Km (recombinant human LAT1; external side, read-out: external Km): 24.6 µM
Km (recombinant human LAT1; internal side, read-out: internal Km): 2800 µM

Binding of [3H]L-Leucine (%), residual radioligand binding (RRB) (human 4F2hc-LAT1 [1]; [4]): 59%
Binding of [3H]L-Leucine (%), residual radioligand binding (RRB) (human 4F2hc-LAT1 [1]; Figure 4, L-histidine analogues, listed as 1-methyl-L-histidine): 59–64%
Compound: Cn1cnc(C[C@H](N)C(=O)O)c1 [1-Methyl L-Histidine, 1-methyl-L-histidine]

Binding of [3H]L-Leucine (%), residual radioligand binding (RRB) (human 4F2hc-LAT1 [1]; Figure 3, L-leucine analogues): 32%
Binding of [3H]L-Leucine (%), residual radioligand binding (RRB) (human 4F2hc-LAT1 [1]; Figure 3, L-leucine analogues, listed as L-norvaline): 32–43%
Compound: CCC[C@H](N)C(=O)O [L-Norvaline, L-norvaline]

Binding of [3H]L-Leucine (%), residual radioligand binding (human 4F2hc-LAT1 [1]): 29%
Compound: NC(=O)CC[C@H](N)C(=O)O [Gln, L-glutamine]

Binding of [3H]L-Leucine (%), residual radioligand binding (human 4F2hc-LAT1 [1]): 19-29%
Binding of [3H]L-Leucine (%), residual radioligand binding (human 4F2hc-LAT1 [1]; listed as Ile): 22%
Binding of [3H]L-Leucine (%), residual radioligand binding (RRB) (human 4F2hc-LAT1 [1]; Figure 3, L-leucine analogues): 28%
Compound: CC[C@H](C)[C@H](N)C(=O)O [L-Isoleucine, L-isoleucine]

The next lines start with the compound.

Compound: NC1(C(=O)O)CC2CCC1C2 (centres unmarked) [BCH, 2-aminobicyclo-(2,2,1)-heptane-2-carboxylic acid]
Ki (human 4F2hc-LAT1 [1]; [3]): 81 µM

Compound: C[C@@H](O)[C@H](N)C(=O)O [Thr]
Binding of [3H]L-Leucine (%), residual radioligand binding (human 4F2hc-LAT1 [1]): 34%

Compound: COC(=O)[C@@H](N)CC(C)C [L-Leucine-Methyl Ester, L-leucine-methyl ester]
Binding of [3H]L-Leucine (%), residual radioligand binding (RRB) (human 4F2hc-LAT1 [1]; Figure 3, L-leucine analogues): 106%
binding / inhibition of [3H]L-leucine binding to 4F2hc-LAT1, in words (human 4F2hc-LAT1 [1]): no significant binding

Compound: Nc1cc(COc2c(Cl)cc(C[C@H](N)C(=O)O)cc2Cl)c2oc(-c3ccccc3)nc2c1 [JPH203, (S)-2-amino-3-(4-((5-amino-2-phenylbenzo [d]oxazol-7-yl)-methoxy)-3,5-dichlorophenyl)-propanoic acid]
Ki (human 4F2hc-LAT1 [1]; heterologous competition with [3H]L-leucine, Figure 2D, read-out: Ki): 0.079 µM

Compound: Cn1cncc1C[C@H](N)C(=O)O [3-Methyl L-Histidine, 3-methyl-L-histidine]
Binding of [3H]L-Leucine (%), residual radioligand binding (RRB) (human 4F2hc-LAT1 [1]; [4]): 64%
Binding of [3H]L-Leucine (%), residual radioligand binding (RRB) (human 4F2hc-LAT1 [1]; Figure 4, L-histidine analogues, listed as 3-methyl-L-histidine): 59–64%

Compound: CN[C@@H](CC(C)C)C(=O)O [N-Methyl-L-Leucine, N-methyl-L-leucine]
Binding of [3H]L-Leucine (%), residual radioligand binding (RRB) (human 4F2hc-LAT1 [1]; Figure 3, L-leucine analogues): 103%
binding / inhibition of [3H]L-leucine binding to 4F2hc-LAT1, in words (human 4F2hc-LAT1 [1]): no significant binding

Compound: NC(Cc1cc(I)c(Oc2cc(I)c(O)c(I)c2)c(I)c1)C(=O)O (centres unmarked) [T4, thyroxine]
Ki (human 4F2hc-LAT1 [1]): 10 µM
